{"source": "paper PMC5626944", "about": "(Frontiers in Pharmacology, 2017)", "key": {"WT and α6L9′S mice": {"tested_on": "WT and α6L9′S mice", "experiment": "Locomotor assay in a novel environment", "type": "in vivo, mouse", "settings": "0.5 μmol/kg ip (nicotine 0.08 mg/kg, TC299423 0.09 mg/kg)", "procedure": "Mice were habituated to the experimental room for 2 h prior to the experiment. Horizontal locomotor activity was recorded using an infrared photobeam activity cage system (San Diego Instruments; San Diego, CA, United States). After habituating to the experimental room, mice were placed singly in a novel cage. Ambulations were recorded when two contiguous photobeams were broken in succession, preventing activity from being recorded by most sedentary animals. Ambulation events were measured for 45 min with four 15 s intervals per min. Mice were given a total of two intraperitoneal (ip) injections. First, mice were pre-injected with saline or 1 mg/kg mecamylamine before being placed in the activity cages."}, "Sigma 1": {"tested_on": "Sigma 1", "experiment": "NovaScreen competition binding", "settings": "1 µM"}, "α6β2* nAChRs [1]": {"target": "T1, α6β2* nAChRs (Mus musculus, UniProt Q9ERK7+Q9R0W9)", "experiment": "[125I]epibatidine binding, striatal membranes from α4KO mice", "set-up": "from tissue; host or cells: striatal membranes from α4KO mice", "procedure": "Brain membrane preparations were stored as pellets under buffer at -70°C or used immediately."}, "[2]": {"tested_on": "T2, Phosphodiesterase, PDE4A1A (h)", "T2 construct": "PerkinElmer – Caliper Life Sciences (NovaScreen service)", "experiment": "NovaScreen enzyme assay", "type": "biochemical, human", "settings": "1 µM"}, "[3]": {"target": "T3, High-sensitivity α4(2)β2(3) nAChRs (Mus musculus, UniProt O70174+Q9ERK7)", "T3 construct": "from tissue; host or cells: WT mouse thalamic and cortical synaptosomes", "T3 sequence (Q9ERK7 26-501)": "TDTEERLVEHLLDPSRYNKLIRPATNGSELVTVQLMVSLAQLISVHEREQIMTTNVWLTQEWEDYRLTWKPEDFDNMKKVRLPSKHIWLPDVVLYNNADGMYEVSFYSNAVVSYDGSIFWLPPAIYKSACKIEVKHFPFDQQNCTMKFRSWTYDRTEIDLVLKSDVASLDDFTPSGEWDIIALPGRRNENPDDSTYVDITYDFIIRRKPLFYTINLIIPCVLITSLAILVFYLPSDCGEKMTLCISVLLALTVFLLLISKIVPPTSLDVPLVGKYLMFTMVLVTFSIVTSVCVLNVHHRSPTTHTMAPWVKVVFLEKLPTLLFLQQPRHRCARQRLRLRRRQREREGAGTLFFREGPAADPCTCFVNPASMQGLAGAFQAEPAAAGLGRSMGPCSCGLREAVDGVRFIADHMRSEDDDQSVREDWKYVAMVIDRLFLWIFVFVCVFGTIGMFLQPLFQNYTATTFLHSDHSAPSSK", "T3 sequence (O70174 31-629)": "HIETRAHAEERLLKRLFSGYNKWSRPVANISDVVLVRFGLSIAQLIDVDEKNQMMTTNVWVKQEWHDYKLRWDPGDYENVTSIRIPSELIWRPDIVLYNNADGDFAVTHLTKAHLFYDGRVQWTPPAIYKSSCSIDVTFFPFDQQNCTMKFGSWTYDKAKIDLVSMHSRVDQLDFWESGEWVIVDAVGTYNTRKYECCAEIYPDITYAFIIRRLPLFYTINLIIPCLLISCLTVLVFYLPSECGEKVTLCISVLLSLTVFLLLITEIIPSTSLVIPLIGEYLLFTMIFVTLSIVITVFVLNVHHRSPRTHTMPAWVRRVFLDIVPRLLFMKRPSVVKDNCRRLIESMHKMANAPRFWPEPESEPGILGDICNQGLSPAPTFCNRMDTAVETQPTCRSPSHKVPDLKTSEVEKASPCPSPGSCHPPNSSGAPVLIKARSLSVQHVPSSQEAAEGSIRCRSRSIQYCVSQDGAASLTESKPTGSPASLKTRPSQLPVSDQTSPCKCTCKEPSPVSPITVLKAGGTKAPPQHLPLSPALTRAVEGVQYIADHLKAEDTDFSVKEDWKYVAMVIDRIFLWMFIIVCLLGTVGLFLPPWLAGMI", "experiment": "86Rb+ efflux from thalamic and cortical synaptosomes, DhβE-sensitive component", "type": "biochemical", "procedure": "(§1) Regions of interest were dissected from fresh mouse brains and homogenized in ice-cold isotonic sucrose (0.32 M), buffered with HEPES (5 mM, pH 7.5). The suspension was centrifuged at 12,000 × g for 20 min."}, "[4]": {"experiment": "Pharmacokinetics in mice, plasma and brain by LC-MS/MS", "type": "in vivo, mouse", "settings": "for half-life / Tmax: both sexes, mouse, plasma; for Tmax: read-out: Time of maximum plasma concentration", "procedure": "Pharmacokinetic experiments with TC299423 were performed by Absorption Systems LP (Exton, PA, United States). […] Blood samples were taken and the brains were harvested 5 min, 15 min, 30 min, 1 h, 3 h, and 6 h after drug administration. […] Blood and brain samples were obtained at the same time points as above. Untreated plasma and blood samples were collected from three mice in the same cohort as the study animals for pre-dose (time 0) samples. Blood samples were collected by cardiac puncture and stored in tubes containing sodium heparin before being processed. Plasma was prepared and frozen for analysis. Brains were harvested, rinsed, patted dry, weighed, and frozen.\nMatched matrix was used for preparation of calibration standards. Dosing solutions were normalized in matched matrix and analyzed in triplicate in the same analytical batch as the incurred samples."}, "Dopamine, D3": {"tested_on": "Dopamine, D3", "experiment": "NovaScreen competition binding", "settings": "1 µM"}, "[5]": {"experiment": "In vitro metabolism in microsomes", "type": "in vitro ADME", "settings": "rat microsomes"}, "Leukotriene, LTB4 (BLT)": {"tested_on": "Leukotriene, LTB4 (BLT)", "experiment": "NovaScreen competition binding", "settings": "1 µM"}, "Neuropeptide, NPY2 (h)": {"tested_on": "T4, Neuropeptide, NPY2 (h)", "T4 construct": "PerkinElmer – Caliper Life Sciences (NovaScreen service)", "experiment": "NovaScreen competition binding", "set-up": "species or system human", "settings": "1 µM"}, "Muscarinic, M4 (h)": {"tested_on": "Muscarinic, M4 (h)", "experiment": "NovaScreen competition binding", "set-up": "species or system human", "settings": "1 µM"}, "α6β2* nAChRs [6]": {"target": "T1, α6β2* nAChRs", "experiment": "biochemical", "type": "biochemical", "settings": "for EC50: read-out: Neurotransmitter release EC50 (converted); for Emax: relative to nicotine", "procedure": "as §1, with “min. The pellet was re-suspended in the appropriate uptake buffer ([Grady et al., 2001]; [Salminen et al., 2004]; [Marks et al., 2006]) and used immediately.” for “min.”\nSuperfusion was carried out at 22°C using a buffer containing: NaCl, 128 mM; KCl, 2.4 mM; CaCl2, 3.2 mM; MgSO4, 1.2 mM; KH2PO4, 1.2 mM; HEPES, 25 mM; glucose, 10 mM; ascorbic acid, 1 mM; pargyline, 0.01 mM; 0.1% BSA; nomifensine, 1 μM (to prevent the re-uptake of dopamine); atropine, 1 μM (to prevent muscarinic receptor activation); pH 7.5. Superfusion proceeded at 0.7 mL/min for 10 min before stimulation with agonist for 20 s. Selected aliquots were perfused with α-CtxMII (50 nM) for 3 min immediately before stimulation. This concentration of α-CtxMII was sufficient to inhibit α6β2^∗-nAChRs in the mouse striatum ([Salminen et al., 2004], [2007]). Fractions (∼0.1 mL) were collected into 96-well plates at 10 s intervals for 4 min (starting ∼1 min before stimulation). After adding 0.15 mL of Optiphase SuperMix scintillation cocktail, radioactivity was measured using a 1450 MicroBeta TriLux counter (Perkin Elmer Life Sciences)."}, "[7]": {"tested_on": "Nicotinic, Neuronal (α-BnTx insensitive)", "experiment": "NovaScreen competition binding", "settings": "1 µM", "text": "(§2) Assays included the nicotinic drug [^3H]epibatidine binding to α-bungarotoxin-insensitive nAChRs, the 5-HT3 inhibitor [N-methyl-^3H]GR65630 to mouse receptors in N1E-115 cells, and human receptors expressed in a clonal cell line. Other assays included monoamine oxidase A, monoamine oxidase B, 5-HT transporter, norepinephrine transporter, and dopamine transporter, as well as other. G-protein-coupled receptors, ion channels, enzymes, and transporters."}, "[8]": {"tested_on": "Potassium Channel, ATP-Sensitive", "experiment": "NovaScreen competition binding", "settings": "1 µM", "text": "as §2"}}, "note": "Where two headings read alike, the source gives them in different places.", "data": [{"smiles": "C1=C(/c2cncnc2)CCCNCC/1", "note": "[TC299423, (E)-5-(pyrimidin-5-yl)-1,2,3,4,7,8-hexahydroazocine]", "values": [{"measurement": "Ambulatory activity in a novel environment", "setting": "WT and α6L9′S mice; WT mice", "value": "Neither TC299423 nor nicotine affected WT ambulation"}, {"measurement": "Ambulatory activity in a novel environment", "setting": "WT and α6L9′S mice; α6L9′S mice", "value": "dramatically increased the ambulatory activity"}, {"measurement": "Hit", "setting": "Sigma 1", "value": "FALSE"}, {"measurement": "Inhibition", "setting": "Sigma 1; [3H]-(+)-Pentazocine", "value": -0.52, "unit": "%"}, {"measurement": "Ki", "setting": "α6β2* nAChRs [1]; α4KO striatal membranes", "value": "1.4 ± 0.6", "unit": "nM"}, {"measurement": "Difference between Ki ([125I]epibatidine) and EC50 ([3H]dopamine release)", "setting": "α6β2* nAChRs [1]; α6β2* nAChRs", "value": "~20", "unit": "fold"}, {"measurement": "Hit", "setting": "[2]", "value": "FALSE"}, {"measurement": "86Rb+ efflux Efficacy", "setting": "[3]; Cortex", "value": "94 ± 7", "unit": "%"}, {"measurement": "EC50", "setting": "[3]; Cortex, read-out: 86Rb+ efflux EC50", "value": "2000 ± 2000", "unit": "nM"}, {"measurement": "86Rb+ efflux Efficacy", "setting": "[3]; Thalamus", "value": "139 ± 14", "unit": "%"}, {"measurement": "EC50", "setting": "[3]; Thalamus, read-out: 86Rb+ efflux EC50", "value": "600 ± 100", "unit": "nM"}, {"measurement": "EC50", "setting": "[3]; thalamic and cortical synaptosomes, read-out: EC50 for the DhβE-sensitive α4β2* nAChRs", "value": "600 to 2000", "unit": "nM"}, {"measurement": "Maximum brain-tissue concentration", "setting": "[4]; 0.3 mg/kg ip", "value": "22 ± 0.43", "unit": "ng/g"}, {"measurement": "Maximum plasma concentration", "setting": "[4]; 0.3 mg/kg ip", "value": "49 ± 18", "unit": "ng/mL"}, {"measurement": "Time of maximum brain-tissue concentration", "setting": "[4]; 0.3 mg/kg ip", "value": 0.5, "unit": "h"}, {"measurement": "Maximum brain-tissue concentration", "setting": "[4]; 0.3 mg/kg ip, converted", "value": 0.12, "unit": "µM"}, {"measurement": "Maximum plasma concentration", "setting": "[4]; 0.3 mg/kg ip, converted", "value": 0.26, "unit": "µM"}, {"measurement": "Maximum brain-tissue concentration", "setting": "[4]; 1 mg/kg oral", "value": "42 ± 17", "unit": "ng/g"}, {"measurement": "Maximum plasma concentration", "setting": "[4]; 1 mg/kg oral", "value": "38 ± 10", "unit": "ng/mL"}, {"measurement": "Time of maximum brain-tissue concentration", "setting": "[4]; 1 mg/kg oral", "value": 0.25, "unit": "h"}, {"measurement": "Maximum brain-tissue concentration", "setting": "[4]; 1 mg/kg oral, converted", "value": 0.22, "unit": "µM"}, {"measurement": "Maximum plasma concentration", "setting": "[4]; 1 mg/kg oral, converted", "value": 0.20, "unit": "µM"}, {"measurement": "half-life", "setting": "[4]; 0.3 mg/kg ip", "value": 10.2, "unit": "min"}, {"measurement": "Tmax", "setting": "[4]; 0.3 mg/kg ip", "value": 4.8, "unit": "min"}, {"measurement": "half-life", "setting": "[4]; 1 mg/kg oral", "value": 67.2, "unit": "min"}, {"measurement": "Tmax", "setting": "[4]; 1 mg/kg oral", "value": 15, "unit": "min"}, {"measurement": "Time remaining in the brain", "setting": "[4]; following ip injection or oral administration", "value": "at least 60 min"}, {"measurement": "Hit", "setting": "Dopamine, D3", "value": "FALSE"}, {"measurement": "Inhibition", "setting": "Dopamine, D3; [3H]7-OH-DPAT", "value": -16.93, "unit": "%"}, {"measurement": "Half-life compared to varenicline", "setting": "[5]", "value": "~7", "unit": "fold"}, {"measurement": "half-life", "setting": "[5]", "value": 79, "unit": "min"}, {"measurement": "microsomal CLint", "setting": "[5]; read-out: Clearance", "value": 18, "unit": "µL/min/mg"}, {"measurement": "Hit", "setting": "Leukotriene, LTB4 (BLT)", "value": "FALSE"}, {"measurement": "Inhibition", "setting": "Leukotriene, LTB4 (BLT); [3H]LTB4", "value": 29.86, "unit": "%"}, {"measurement": "Hit", "setting": "Neuropeptide, NPY2 (h)", "value": "FALSE"}, {"measurement": "Inhibition", "setting": "Neuropeptide, NPY2 (h); [125I]-PYY", "value": 2.16, "unit": "%"}, {"measurement": "Hit", "setting": "Muscarinic, M4 (h)", "value": "FALSE"}, {"measurement": "Inhibition", "setting": "Muscarinic, M4 (h); [3H]Scopolamine, N-Methyl", "value": -6.69, "unit": "%"}, {"measurement": "EC50", "setting": "α6β2* nAChRs [6]; WT striatal synaptosomes", "value": "30 ± 0.006", "unit": "nM"}, {"measurement": "Maximal response, α-CtxMII-sensitive [3H]-dopamine release", "setting": "α6β2* nAChRs [6]; calculated from Michaelis–Menten curve fit", "value": "0.93 ± 0.08", "unit": "units"}, {"measurement": "Emax", "setting": "α6β2* nAChRs [6]; read-out: Neurotransmitter release % Efficacy, WT striatal synaptosomes", "value": "50 ± 20", "unit": "%"}, {"measurement": "Emax", "setting": "α6β2* nAChRs [6]; read-out: Neurotransmitter release % Efficacy, α5KO striatal synaptosomes", "value": "54 ± 14", "unit": "%"}, {"measurement": "EC50", "setting": "α6β2* nAChRs [6]; α5KO striatal synaptosomes", "value": 50, "unit": "nM"}, {"measurement": "Hit", "setting": "[7]", "value": "TRUE (TC299423 inhibited >50% of the reference radioligand for two sites)"}, {"measurement": "Inhibition", "setting": "[7]; [3H]Epibatidine", "value": 93.33, "unit": "%"}, {"measurement": "Hit", "setting": "[8]", "value": "TRUE (TC299423 inhibited >50% of the reference radioligand for two sites)"}, {"measurement": "Inhibition", "setting": "[8]; [3H]Glibenclamide", "value": 52.12, "unit": "%"}]}]}
